In patent EP4737457A1, “POLYSUBSTITUTED MACROCYCLIC COMPOUND, AND PREPARATION METHOD THEREFOR AND USE THEREOF” (Shenzhen Salubris Pharmaceuticals Co., Ltd., priority 2023, dated 2025):

What was measured:
Human Factor XIa = Human Factor XIa (Homo sapiens, UniProt P03951); assay: Inhibition of human coagulation Factor XIa by absorbance method (S-2366 substrate, 405 nm); format: biochemical; conditions: incubated at 37 °C for 20 minutes; substrate 800 µM; read-out: Recombinant Enzyme FXIa IC50
Procedure: • Enzyme: Human Factor XIa (ENZYME […], Cat. No. HFXIa 1111a) • Substrate: S-2366™ (CHROMOGENIX, Cat. No. 82109039) • Buffer: 145 mM NaCl, 5 mM KCl, 1 mg/mL PEG 8000, 30 mM HEPES, pH 7.4.
Test compounds dissolved in 100% DMSO at 10 mM were diluted with 100% DMSO to concentrations of 1000 µM, 200 µM, 40 µM, 8 µM, 1.6 µM, 0.32 µM, 0.064 µM, 0.0128 µM, 0.00256 µM, and […]. Then 98 µL of FXIa enzyme solution (77.7 ng/mL) was added to each well of a 96-well plate, with 98 µL of buffer added to blank wells instead. Then, 2 µL of compound at different concentrations was added; DMSO was used instead for blank and control wells. The plate was mixed using a plate shaker and incubated at 37 °C for 20 minutes.
Finally, 100 µL of substrate (800 µM) was added to each well, and the absorbance was measured at 405 nm.
Curve fitting was performed using GraphPad Prism software to calculate the IC50 values.

Pooled human plasma = assay: In vitro anticoagulant effect in human plasma (aPTT, EC1.5x); format: biochemical; conditions: 37 °C for 10 minutes
Procedure: aPTT (Lot 220106600), Calcium Chloride (Lot 210305600), Needle Rinse Solution (Lot 211101300): produced by Shenzhen Mindray Bio-Medical Electronics Co., Ltd. Pooled human plasma: collected from healthy individuals using disposable venous blood collection tubes (Liuyang Sanli Medical Technology Development Co., Ltd., Lot 211108, sodium citrate 9:1). Blood was collected, centrifuged at room temperature at 3000 rpm for 10 minutes, and the supernatant was collected and stored for use (Lot 20220606).
Test compounds dissolved in 100% DMSO at 10 mM were diluted with 100% DMSO to concentrations of 0.29 µM, 0.59 µM, 1.17 µM, 2.34 µM, 4.69 µM, 9.38 µM, 18.75 µM, and 37.50 µM. Then 99 µL of pooled human plasma was added to each 1.5 mL centrifuge tube, followed by the addition of 1 µL of compound at different concentrations; 1 µL of DMSO was added to the blank control. The tubes were mixed by repeated manual inversion, centrifuged briefly using a mini centrifuge to collect the samples, and then incubated in a thermostatic water bath at 37 °C for 10 minutes with mixing. The aPTT was measured using a fully automated coagulation analyzer according to the preset program.
Curve fitting was performed using GraphPad Prism software to calculate EC1.5x.

[1] = Pharmacokinetic experiment in rats (iv and PO); conditions: male, Sprague-Dawley (SD), rat, plasma, 5 mg/kg
Description: Polyethylene glycol 400 (PEG-400, Lot GORKREUT, Shaen Chemical Technology (Shanghai) Co., Ltd.), DMSO (Lot 20200319, Guangdong Guanghua Sci-Tech Co., Ltd.), normal saline (Lot C20052604, Jiangxi Kelun Pharmaceutical Co., Ltd.). LC-MS instrument (Thermo Fisher Ultimate 3000 UPLC, TSQ QUANTUM ULTRA triple quadrupole mass spectrometer, AB SCIEX 5500 QTARP).
SD rats: Male, 180-250 g, purchased from Guangdong Vital River Laboratory Animal Technology Co., Ltd.
The test compound powder was accurately weighed, completely dissolved in DMSO, then PEG-400 was added. The mixture was vortexed and sonicated to mix, followed by the addition of normal saline. The mixture was vortexed and sonicated again to achieve a final concentration of 0.5 mg/mL (DMSO:PEG-400:NS = 5:60:35, V/V/V). The dosing volume was 10 mL/kg for oral gavage and 0.5 mL/kg for intravenous administration.
After intravenous or oral administration to rats, 200 µL of venous blood was collected at 5 min (not collected for oral group), 15 min, 30 min, 1 h, 2 h, 5 h, 7 h, and 24 h into heparinized EP tubes. The blood was centrifuged at 12,000 rpm for 2 minutes, and the plasma was collected and stored at -80 °C until analysis.
A precise amount of the test compound was weighed and dissolved in DMSO to 1 mg/mL as a stock solution. An appropriate volume of the compound stock solution was accurately pipetted and diluted with acetonitrile to prepare standard series solutions. 20 µL of each standard series solution was accurately pipetted and added to 180 µL of blank plasma, vortexed to mix, to prepare plasma samples equivalent to plasma concentrations of 1 ng/mL, 3 ng/mL, 10 ng/mL, 30 ng/mL, 100 ng/mL, 300 ng/mL, 1000 ng/mL, 3000 ng/mL, and 5000 ng/mL. Each concentration was analyzed in duplicate to establish the standard curve. 20 µL of plasma sample was taken, and 200 µL of an internal standard (propranolol, 5 ng/mL) in acetonitrile solution was added. The mixture was vortexed and centrifuged at 4000 rpm for 5 minutes. The supernatant was taken for LC-MS analysis. The LC-MS detection conditions were as follows: Chromatographic Column: Waters ACQUITY™ PREMIER HSS T3, 50*2.1 mm, 1.8 µm.
Mobile phase A: water (0.1% formic acid), mobile phase B: acetonitrile, flow rate: 0.5 mL/min, gradient elution: see Table 2 below.
After determining the plasma drug concentration by LC-MS, the pharmacokinetic parameters following administration to rats were calculated using the non-compartmental model in WinNonlin 6.1 software.

Human Factor XIa, sequence (P03951 388-625 limits assumed): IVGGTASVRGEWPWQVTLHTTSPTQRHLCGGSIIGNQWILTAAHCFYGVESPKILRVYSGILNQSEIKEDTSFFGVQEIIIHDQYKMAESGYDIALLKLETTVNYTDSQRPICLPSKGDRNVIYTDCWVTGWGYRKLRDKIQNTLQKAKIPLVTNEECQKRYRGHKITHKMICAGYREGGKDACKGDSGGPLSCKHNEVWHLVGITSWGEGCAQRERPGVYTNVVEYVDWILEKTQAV
Human Factor XIa, sequence (P03951 19-387 partner limits assumed): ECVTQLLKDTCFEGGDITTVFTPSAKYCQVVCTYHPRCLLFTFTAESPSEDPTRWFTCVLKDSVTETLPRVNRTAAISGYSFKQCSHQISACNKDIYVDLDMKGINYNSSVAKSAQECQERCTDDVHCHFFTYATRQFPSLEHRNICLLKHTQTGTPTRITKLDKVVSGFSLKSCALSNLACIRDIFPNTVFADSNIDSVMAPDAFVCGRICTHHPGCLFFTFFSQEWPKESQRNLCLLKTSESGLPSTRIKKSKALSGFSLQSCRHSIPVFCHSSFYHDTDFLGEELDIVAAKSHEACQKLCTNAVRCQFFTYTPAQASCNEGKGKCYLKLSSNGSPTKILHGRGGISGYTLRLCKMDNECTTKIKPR

| SMILES | IC50 (Human Factor XIa) | Human Plasma APTT 1.5x (Pooled human plasma) | bioavailability [1] |
| --- | --- | --- | --- |
| [2H]C([2H])([2H])n1ncc2c1-c1cc(F)c(F)c(c1)[C@@H](n1cnc(-c3cc(Cl)ccc3-n3cc(C(F)(F)F)nn3)cc1=O)CCC[C@@H](C)C(=O)N2 [Compound 2, (3R,7R)-3-(4-(5-chloro-2-(4-(trifluoromethyl)-1H-1,2,3-triazol-1-yl)phenyl) -6-oxopyrimidin-1(6H)-yl)-2^42^5-difluoro-7-methyl-1^1-(methyl-d3)-1^1H-9-aza-1(5,4)-pyrazola-2(1,3)-benzenacyclononaphan-8-one] | 0.36 nM | 0.24 µM | – |
| [2H]C([2H])([2H])n1ncc2c1-c1cc(F)c(F)c(c1)[C@@H](n1cnc(-c3c(-n4cc(Cl)nn4)ccc(Cl)c3F)cc1=O)CCC[C@@H](C)C(=O)N2 [Compound 3, (3S,7R)-3-(4-(3-chloro-6-(4-chloro-1H-1,2,3-triazol-1-yl)-2-fluorophenyl)-6-oxopyrimidin-1(6H)-yl)-2^4,2^5-difluoro-7-methyl-1^1-(methyl-d3)-1^1H-9-aza-1(5,4)-pyrazola-2(1,3)-benzenacyclononaphan-8-one] | 0.61 nM | 0.24 µM | 15.7% |
| [2H]C([2H])([2H])n1ncc2c1-c1cc(F)c(F)c(c1)[C@@H](n1ncc(-c3cc(Cl)ccc3-n3cc(C(F)(F)F)nn3)cc1=O)CCC[C@@H](C)C(=O)N2 [Compound 5, (3S,7R)-3-(4-(5-chloro-2-(4-(trifluoromethyl)-1H-1,2,3-triazol-1-yl)phenyl) -6-oxopyridazin-1(6H)-yl)-2^4,2^5-difluoro-7-methyl-1^1-(methyl-d3)-1^1H-9-aza-1(5,4)-pyrazola-2(1,3)-benzenacyclononaphan-8-one] | 0.89 nM | 0.83 µM | – |
| [2H]C([2H])([2H])n1ncc2c1-c1cc(F)c(F)c(c1)[C@@H](n1ncc(-c3c(-n4cc(C(F)(F)F)nn4)ccc(Cl)c3F)c(Cl)c1=O)CCC[C@@H](C)C(=O)N2 [Compound 6, (3S,7R)-3-(5-chloro-4-(3-chloro-2-fluoro-6-(4-(trifluoromethyl)-1H-1,2,3-triazol-1-yl)phenyl)-6-oxopyridazin-1(6H)-yl)-2^42^5-difluoro-7-methyl-1^1-(methyl-d3)-1^1H-9-aza-1(5,4)-pyrazola-2(1,3)-benzenacyclononaphan-8-one] | 1.06 nM | 0.43 µM | 14.1% |
| [2H]C([2H])([2H])n1ncc2c1-c1cc(F)c(F)c(c1)[C@@H](n1ccc(-c3cc(Cl)ccc3-n3cc(C(F)(F)F)nn3)cc1=O)CCC[C@@H](C)C(=O)N2 [Compound 7, (3S,7R)-3-(4-(5-chloro-2-(4-(trifluoromethyl)-1H-1,2,3-triazol-1-yl)phenyl) -2-oxopyridin-1(2H)-yl)-2^4,2^5-difluoro-7-methyl-1^1-(methyl-d3)-1^1H-9-aza-1(5,4)-pyrazola-2 (1,3)-benzenacyclononaphan-8-one] | 0.34 nM | 0.22 µM | – |
| [2H]C([2H])([2H])n1ncc2c1-c1cc(F)c(F)c(c1)[C@@H](n1ccc(-c3cc(Cl)ccc3-n3cc(C(F)(F)F)nn3)c(Cl)c1=O)CCC[C@@H](C)C(=O)N2 [Compound 8, (3S,7R)-3-(4-(5-chloro-2-(4-(trifluoromethyl)-1H-1,2,3-triazol-1-yl)phenyl) -3-chloro-2-oxopyridin-1(2H)-yl)-2^4,2^5-difluoro-7-methyl-1^1-(methyl-d3)-1^1H-9-aza-1(5,4)-p yrazola-2(1,3)-benzenacyclononaphan-8-one] | 0.15 nM | – | – |
| [2H]C([2H])([2H])n1ncc2c1-c1cc(F)c(F)c(c1)[C@@H](n1ccc(-c3cc(Cl)ccc3-n3cc(C(F)(F)F)nn3)c(F)c1=O)CCC[C@@H](C)C(=O)N2 [Compound 9, (3S,7R)-3-(4-(5-chloro-2-(4-(trifluoromethyl)-1H-1,2,3-triazol-1-yl)phenyl)-3-fluoro-2-oxopyridin-1(2H)-yl)-2^4,2^5-difluoro-7-methyl-1^1-(methyl-d3)-1^1H-9-aza-1 (5,4)-pyrazola-2(1,3)-benzenacyclononaphan-8-one] | 0.3 nM | – | – |
| [2H]C([2H])([2H])n1ncc2c1-c1cc(F)c(F)c(c1)[C@@H](n1ccc(-c3cc(Cl)ccc3-n3cc(C(F)F)nn3)cc1=O)CCC[C@@H](C)C(=O)N2 [Compound 10, (3S,7R)-3-(4-(5-chloro-2-(4-(difluoromethyl)-1H-1,2,3-triazol-1-yl)phenyl)-2-oxopyridin-1(2H)-yl)-2^4,2^5-difluoro-7-methyl-1^1-(methyl-d3)-1^1H-9-aza-1(5,4)-pyrazola-2(1,3)-benzenacyclononaphan-8-one] | 0.77 nM | 0.20 µM | – |
| C[C@@H]1CCC[C@H](n2cnc(-c3c(-n4cc(C(F)(F)F)nn4)ccc(Cl)c3F)cc2=O)c2cc(cc(F)c2F)-c2c(cnn2C(F)F)NC1=O [Compound 11, (3S,7R)-3-(4-(3-chloro-2-fluoro-6-(4-(trifluoromethyl)-1H-1,2,3-triazol-1-yl)phenyl)-6-oxopyrimidin-1(6H)-yl)-2^4,2^5-difluoro-7-methyl-1^1-difluoromethyl-1^1H-9-aza-1 (5,4)-pyrazola-2(1,3)-benzenacyclononaphan-8-one] | 0.29 nM | 0.23 µM | 21.6% |
| C[C@@H]1CCC[C@H](n2cnc(-c3c(-n4cc(Cl)nn4)ccc(Cl)c3F)cc2=O)c2cc(cc(F)c2F)-c2c(cnn2C(F)F)NC1=O [Compound 13, (3S,7R)-3-(4-(3-chloro-6-(4-chloro-1H-1,2,3-triazol-1-yl)-2-fluorophenyl)-6-oxopyrimidin-1(6H)-yl)-2^4,2^5-difluoro-7-methyl-1^1-difluoromethyl-1^1H-9-aza-1(5,4)-pyraz ola-2(1,3)-benzenacyclononaphan-8-one] | 0.4 nM | – | – |
| C[C@@H]1CCC[C@H](n2cnc(-c3cc(Cl)ccc3-n3cc(Cl)nn3)cc2=O)c2cc(cc(F)c2F)-c2c(cnn2C(F)F)NC1=O [Compound 14, (3S,7R)-3-(4-(5-chloro-2-(4-chloro-1H-1,2,3-triazol-1-yl)phenyl)-6-oxopyrimidin-1(6H)-yl)-2^4,2^5-difluoro-7-methyl-1^1-difluoromethyl-1^1H-9-aza-1(5,4)-pyrazol a-2(1,3)-benzenacyclononaphan-8-one] | 0.38 nM | – | – |
